# Reference: patent US8841312B2, “Fused pyridine, pyrimidine and triazine compounds as cell cycle inhibitors” (Amgen Inc., priority 2007, dated 2014)
# Key:
# [1] = system: neointima formation; conditions: animal models; cited from earlier work
# [2] = molecular target: Cdk6/CyclinD3 (Homo sapiens (Human), UniProt Q00534); assay: Cdk6 kinase inhibition assay with recombinant Cdk6/CyclinD3, Rb substrate, [33P]-ATP filter plate; format: biochemical; conditions: 25 μM ATP, read-out: Cdk 6 IC50
# How it was run: (§1)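 Recombinant Cdk4/CyclinD1 or Cdk6/CyclinD3 phosphorylated Rb protein with [33P]-ATP for 1 h at room temperature. Protein was TCA-precipitated on filter plates and bound radioactivity counted. IC50 by nonlinear regression.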
# [3] = molecular target: Cdk4/CyclinD1 (Homo sapiens (Human), UniProt P11802); assay: Cdk4 kinase inhibition assay with recombinant Cdk4/CyclinD1, Rb substrate, [33P]-ATP filter plate; format: biochemical; conditions: 25 μM ATP, read-out: Cdk 4 IC50
# How it was run: as §1
# Sequence of Cdk6/CyclinD3 (Q00534 whole entry): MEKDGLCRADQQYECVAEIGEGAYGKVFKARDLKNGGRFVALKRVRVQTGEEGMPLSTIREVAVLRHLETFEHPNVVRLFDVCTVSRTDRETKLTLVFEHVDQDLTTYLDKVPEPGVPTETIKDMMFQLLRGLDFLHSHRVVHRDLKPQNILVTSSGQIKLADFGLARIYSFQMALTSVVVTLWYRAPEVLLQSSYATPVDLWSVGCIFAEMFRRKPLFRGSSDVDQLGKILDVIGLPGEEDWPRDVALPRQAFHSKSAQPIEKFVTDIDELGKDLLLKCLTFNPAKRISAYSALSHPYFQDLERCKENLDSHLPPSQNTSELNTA
# Sequence of Cdk6/CyclinD3 (P30281 whole entry partner): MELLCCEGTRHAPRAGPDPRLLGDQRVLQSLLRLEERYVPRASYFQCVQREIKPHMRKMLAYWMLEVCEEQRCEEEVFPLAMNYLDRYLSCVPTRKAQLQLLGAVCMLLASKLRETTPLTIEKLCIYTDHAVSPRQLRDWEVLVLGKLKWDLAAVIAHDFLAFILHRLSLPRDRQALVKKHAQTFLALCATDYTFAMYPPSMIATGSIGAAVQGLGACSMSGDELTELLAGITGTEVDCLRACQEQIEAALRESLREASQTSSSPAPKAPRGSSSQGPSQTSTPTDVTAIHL
# Sequence of Cdk4/CyclinD1 (P11802 whole entry): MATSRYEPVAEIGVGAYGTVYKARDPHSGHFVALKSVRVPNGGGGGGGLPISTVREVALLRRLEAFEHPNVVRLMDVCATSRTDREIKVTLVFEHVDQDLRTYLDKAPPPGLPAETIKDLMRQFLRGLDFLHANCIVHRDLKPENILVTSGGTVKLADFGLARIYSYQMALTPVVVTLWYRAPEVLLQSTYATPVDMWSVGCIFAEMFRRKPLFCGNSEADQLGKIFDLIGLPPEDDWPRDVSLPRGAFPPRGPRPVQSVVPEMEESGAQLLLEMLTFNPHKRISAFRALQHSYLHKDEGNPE
# Sequence of Cdk4/CyclinD1 (P24385 whole entry partner): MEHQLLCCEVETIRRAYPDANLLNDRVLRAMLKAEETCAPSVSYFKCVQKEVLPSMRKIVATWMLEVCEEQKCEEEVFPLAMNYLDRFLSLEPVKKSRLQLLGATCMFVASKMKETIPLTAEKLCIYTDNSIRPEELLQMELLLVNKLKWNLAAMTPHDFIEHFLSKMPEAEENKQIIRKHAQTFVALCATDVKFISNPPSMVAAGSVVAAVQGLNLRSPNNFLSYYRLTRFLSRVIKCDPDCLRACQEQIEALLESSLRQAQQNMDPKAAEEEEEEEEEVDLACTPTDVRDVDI
SMILES,IC50 [2] [nM],IC50 [3] [nM],inhibition of neointima formation [1]
COc1ccc(CNc2nc(N(CCO)CCO)nc3c2ncn3C(C)C)cc1 [CVT-313],–,–,significant inhibition of neointima formation
C[C@@H](O)Cn1c2cnccc2c2cnc(Nc3ccc(N4CCNCC4)cn3)nc21 [Example 356],370,360,–
C[C@@H](O)Cn1c2cnccc2c2cnc(Nc3ccc(N4CCC(N(C)C)CC4)cn3)nc21 [Example 357],314,294,–
C[C@@H](O)Cn1c2cnccc2c2cnc(Nc3ccc(N4CC[C@@H](O)C4)cn3)nc21 [Example 358],590,470,–
O[C@@H]1CCC[C@@H]1n1c2cnccc2c2cnc(Nc3ccc(N4CCNCC4)cn3)nc21 [Example 361],58,44,–
C[C@@H](CO)n1c2cnccc2c2cnc(Nc3ccc(N4CCNCC4)cn3)nc21 [Example 369],29,45,–
CNC1CCN(c2ccc(Nc3ncc4c5ccncc5n(C5CCC5)c4n3)nn2)CC1 [Example 434],19,13,–
O[C@@H]1CCN(c2ccc(Nc3ncc4c5ccncc5n(C5CCC5)c4n3)nc2)C1 [Example 435],92,42,–
c1cc2c3cnc(Nc4ccc(N5CCC(N6CCCC6)CC5)nn4)nc3n(C3CCCC3)c2cn1 [Example 437],30,23,–
CN(CCO)C1CCN(c2ccc(Nc3ncc4c5ccncc5n(C5CCCC5)c4n3)nn2)CC1 [Example 440],14,5.8,–
C[C@@H](CO)NC1CCN(c2ccc(Nc3ncc4c5ccncc5n(C5CCCC5)c4n3)nn2)CC1 [Example 442],13,1.5,–
CNCCN(C)C1CCN(c2ccc(Nc3ncc4c5ccncc5n(C5CCCC5)c4n3)nn2)CC1 [Example 443],16,4.8,–
c1cc2c3cnc(Nc4ccc(N5CCC(N6CCOCC6)CC5)nn4)nc3n(C3CCCC3)c2cn1 [Example 447],26,2.8,–
OC1CN(C2CCN(c3ccc(Nc4ncc5c6ccncc6n(C6CCCC6)c5n4)nn3)CC2)C1 [Example 448],22,10,–
O[C@@H]1CCN(C2CCN(c3ccc(Nc4ncc5c6ccncc6n(C6CCCC6)c5n4)nn3)CC2)C1 [Example 449],36,12,–
O[C@H]1CCN(C2CCN(c3ccc(Nc4ncc5c6ccncc6n(C6CCCC6)c5n4)nn3)CC2)C1 [Example 450],16,10,–
O[C@@H]1CCCN(C2CCN(c3ccc(Nc4ncc5c6ccncc6n(C6CCCC6)c5n4)nn3)CC2)C1 [Example 451],18,13,–

SMILES,IC50 [2] [nM],IC50 [3] [nM],inhibition of neointima formation [1]
O[C@H]1CCCN(C2CCN(c3ccc(Nc4ncc5c6ccncc6n(C6CCCC6)c5n4)nn3)CC2)C1 [Example 452],30,7,–
OCCCNC1CCN(c2ccc(Nc3ncc4c5ccncc5n(C5CCCC5)c4n3)nn2)CC1 [Example 453],13,4.6,–
FC(F)(F)CNC1CCN(c2ccc(Nc3ncc4c5ccncc5n(C5CCCC5)c4n3)nn2)CC1 [Example 456],380,110,–
CN(CCO)C1CCN(c2ccc(Nc3ncc4c5ccncc5n(C5CCCC5)c4n3)nc2)CC1 [Example 457],37,19,–
O[C@H]1CCN(C2CCN(c3ccc(Nc4ncc5c6ccncc6n(C6CCCC6)c5n4)nc3)CC2)C1 [Example 462],350,340,–
OC1CCN(C2CCN(c3ccc(Nc4ncc5c6ccncc6n(C6CCCC6)c5n4)nc3)CC2)CC1 [Example 463],18,15,–
CCCNC1CCN(c2ccc(Nc3ncc4c5ccncc5n(C5CCCC5)c4n3)nc2)CC1 [Example 466],14,4.7,–
FCCNC1CCN(c2ccc(Nc3ncc4c5ccncc5n(C5CCCC5)c4n3)nc2)CC1 [Example 467],21,7.2,–
c1cc2c3cnc(Nc4ccc(N5CCC(NC6CCC6)CC5)cn4)nc3n(C3CCCC3)c2cn1 [Example 468],19,4.2,–
CC(C)NC1CCN(c2ccc(Nc3ncc4c5ccncc5n(C5CCCC5)c4n3)nc2)CC1 [Example 469],20,5.7,–
FC(F)(F)CNC1CCN(c2ccc(Nc3ncc4c5ccncc5n(C5CCCC5)c4n3)nc2)CC1 [Example 470],38,11,–
CN(CC(=O)O)C1CCN(c2ccc(Nc3ncc4c5ccncc5n(C5CCCC5)c4n3)nc2)CC1 [Example 471],18,4.1,–
COC(=O)CNC1CCN(c2ccc(Nc3ncc4c5ccncc5n(C5CCCC5)c4n3)nc2)CC1 [Example 472],34,24,–
CCN(CCO)C1CCN(c2ccc(Nc3ncc4c5ccncc5n(C5CCCC5)c4n3)nc2)CC1 [Example 473],28,9.7,–
COC(=O)CNC1CCN(c2ccc(Nc3ncc4c5ccncc5n(C5CCCC5)c4n3)nn2)CC1 [Example 476],26,1.7,–
CN(C)CCN(C)C1CCN(c2ccc(Nc3ncc4c5ccncc5n(C5CCCC5)c4n3)nn2)CC1 [Example 479],17,8,–

# The remaining compounds from weak to strong by IC50 [2], led by results:
IC50 [2] [nM],IC50 [3] [nM],SMILES,inhibition of neointima formation [1]
12,4.2,OCCNC1CCN(c2ccc(Nc3ncc4c5ccncc5n(C5CCCC5)c4n3)nn2)CC1 [Example 438],–
12,4.1,c1cc2c3cnc(Nc4ccc(N5CCC(NC6CC6)CC5)cn4)nc3n(C3CCCC3)c2cn1 [Example 465],–
12,5,OC1CN(C2CCN(c3ccc(Nc4ncc5c6ccncc6n(C6CCCC6)c5n4)nc3)CC2)C1 [Example 474],–
12,8,OC[C@@H](O)CNC1CCN(c2ccc(Nc3ncc4c5ccncc5n(C5CCCC5)c4n3)nn2)CC1 [Example 481],–
11,1.9,C[C@H](CO)NC1CCN(c2ccc(Nc3ncc4c5ccncc5n(C5CCCC5)c4n3)nn2)CC1 [Example 444],–
11,5.2,CCN(CCO)C1CCN(c2ccc(Nc3ncc4c5ccncc5n(C5CCCC5)c4n3)nn2)CC1 [Example 454],–
10,4.9,CN(C)CCNC1CCN(c2ccc(Nc3ncc4c5ccncc5n(C5CCCC5)c4n3)nn2)CC1 [Example 480],–
9,7,OC1CCN(C2CCN(c3ccc(Nc4ncc5c6ccncc6n(C6CCCC6)c5n4)nn3)CC2)CC1 [Example 455],–
8,2.6,C[C@@H](CO)NC1CCN(c2ccc(Nc3ncc4c5ccncc5n(C5CCCC5)c4n3)nc2)CC1 [Example 475],–
6.3,2.2,OCC(CO)NC1CCN(c2ccc(Nc3ncc4c5ccncc5n(C5CCCC5)c4n3)nn2)CC1 [Example 445],–
5.7,3.7,C[C@H](O)CNC1CCN(c2ccc(Nc3ncc4c5ccncc5n(C5CCCC5)c4n3)nn2)CC1 [Example 439],–
5.7,2,O=C(O)CNC1CCN(c2ccc(Nc3ncc4c5ccncc5n(C5CCCC5)c4n3)nn2)CC1 [Example 478],–
5.1,13,"C[C@H](CO)NC1CCN(c2ccc(Nc3ncc4c5ccncc5n(C5CCCC5)c4n3)nc2)CC1 [Example 436, (2R)-2-((1-(6-((9-cyclopentyl-9H-pyrido[4′,3′:4,5]pyrrolo[2,3-d]pyrimidin-2-yl)amino)-3-pyridinyl)-4-piperidinyl)amino)-1-propanol]",–
5.1,4.8,OCCNC1CCN(c2ccc(Nc3ncc4c5ccncc5n(C5CCCC5)c4n3)nc2)CC1 [Example 458],–
5.1,2,O=C(O)CNC1CCN(c2ccc(Nc3ncc4c5ccncc5n(C5CCCC5)c4n3)nc2)CC1 [Example 477],–
4.8,1.3,OC[C@H](O)CNC1CCN(c2ccc(Nc3ncc4c5ccncc5n(C5CCCC5)c4n3)nn2)CC1 [Example 446],–
3.8,1.7,C[C@@H](O)CNC1CCN(c2ccc(Nc3ncc4c5ccncc5n(C5CCCC5)c4n3)nn2)CC1 [Example 441],–
3.1,2,CCNC1CCN(c2ccc(Nc3ncc4c5ccncc5n(C5CCCC5)c4n3)nc2)CC1 [Example 464],–
